From patent US11485725B2, “Derivatives of piperlongumine and uses thereof” (Auransa Inc., priority 2017, dated 2022)
Like-named read-outs stand apart in the source and are kept apart here.

Key:
[1] = tested on: HCT116 (colorectal cancer) cells; assay: Resazurin-based cell viability assay using colorectal cancer cells
Experimental: Determination of Potency of Compounds in Cell Viability Assay Using Colorectal Cancer Cells
The blue dye resazurin-based assay was performed to determine cell viability and used according to manufacture protocol (Sigma®). HCT116 (colorectal cancer) cells were seeded in the DMEM medium (10% FBS serum). Approximately 1,500 cells were plated per well in 96 well plates. Cells were allowed to grow at 37° C. for 24 hr in 5% CO2 environment in a humidified incubator. Serially diluted compounds (100 μL) were added to the culture plate after 24 hr. After addition of compounds, plates were incubated for 72 hr. Experiment was terminated at the designated incubation time by replacing the medium with 100 μL of 1 mM of resazurin (Sigma®) prepared in culture medium (DMEM) and were further incubated in culture conditions for 4-6 hours. Fluorescence was recorded using a multimodal plate reader (Biotek Synergy Neo®) at an excitation wavelength of 535 nm and emission wavelength of 590 nm to obtain relative fluorescence units. Data analysis was done by subtracting the background fluorescence (medium blank) value from each reading and then normalizing with the vehicle control (DMSO treated cells) to obtain percent survival/proliferation. IC50 was calculated from percent survival values using GraphPad Prism® (see Table 1).

[2] = tested on: DU4475; assay: In vitro cell viability assay (CellTiter-Glo, ATP levels), triple negative breast cancer cells; format: cell-based; conditions: 7-day incubation, CellTiter-Glo, average values, read-out: DU4475 IC50
Experimental: (§1) In Vitro Cell Viability Assay
(§2) The present disclosure provides a method for inhibiting cell viability, as measured by ATP levels. The method for inhibiting cell viability is drawn to contacting various cancer cells with the compounds described herein at various concentrations. The cancer cell lines were maintained in culture conditions at 37° C. in an atmosphere of 5% CO2 in air. The cells growing in an exponential growth phase were harvested and counted for plating. Compounds were incubated in two cancer cell types representing multiple myeloma (MOLP-8) and triple negative breast cancer (DU4475). Cells were plated at an optimized cell numbers per well in 96-well plates and allowed to attach to the plates overnight at approximately 80% confluency.
(§3) After addition of compounds, plates were incubated for 7-day. At the end of incubation period on day 8, media was removed and replaced with a solution of CellTiter-Glo™ reagent (Promega®) according to protocol. Luminescence was read using an EnVision® multi-label plate reader (Perkin-Elmer®), and signal intensity was calculated relative to positive and negative control wells. Cisplatin was included as the positive control. A dose-response calculation was performed in a non-linear regression fit and by using the Hill equation to calculate a concentration-response curve and 50% inhibitory concentration (IC50) values for each compound.
(§4) The average IC50 values of compounds 1-15 in multiple myeloma (MOLP-8) and triple negative breast cancer (DU4475) cells are shown in Table 1.

[3] = tested on: MOLP-8; assay: In vitro cell viability assay (CellTiter-Glo, ATP levels), multiple myeloma cells; format: cell-based; conditions: 7-day incubation, CellTiter-Glo, average values, read-out: MOLP-8 IC50
Experimental: as §1, §2, §3, §4

[4] = Homo sapiens, HCT-116, 72 hr incubation

O=C1C=CCCCN1C(=O)/C=C/c1ccncc1 [Compound 5, (E)-1-(3-(pyridin-4-yl)acryloyl)-1,5,6,7-tetrahydro-2H-azepin-2-one]
IC50 [1, 4]: 2000 nM | IC50 ([2]; Homo sapiens, DU-4475, 168 h): 570 nM | IC50 ([3]; Homo sapiens, MOLP-8, 168 h): 490 nM

O=C1C=CCCCN1C(=O)/C=C/c1cnc2ccccc2c1 [Compound 3, (E)-1-(3-(quinolin-3-yl)acryloyl)-1,5,6,7-tetrahydro-2H-azepin-2-one]
IC50 [1, 4]: 1700 nM | IC50 ([2]; Homo sapiens, DU-4475, 168 h): 760 nM | IC50 ([3]; Homo sapiens, MOLP-8, 168 h): 360 nM

C/C(=C/C1CCN(C(=O)Nc2ccc(F)cc2)CC1)C(=O)N1CCC=CC1=O [Compound 78]
IC50 [1, 4]: 4850 nM | IC50 ([2]; Homo sapiens, DU-4475, 168 h): 1530 nM | IC50 ([3]; Homo sapiens, MOLP-8, 168 h): 950 nM

O=C1C=CCCN1C(=O)/C=C/c1ccc2c(n1)OCCO2 [Compound 23, (E)-1-(3-(2,3-dihydro-[1,4]dioxino[2,3-b]pyridin-6-yl)acryloyl)-5,6-dihydropyridin-2(1H)-one]
IC50 ([1]; 72 hr incubation, read-out: HCT 116 IC50): 3160 nM | IC50 [2]: 500 nM | IC50 [3]: 700 nM

O=C1C=CCCN1C(=O)/C=C/c1ncccn1 [Compound 7, (E)-1-(3-(pyrimidin-2-yl)acryloyl)-5,6-dihydropyridin-2(1H)-one]
IC50 [1, 4]: 1500 nM | IC50 ([2]; Homo sapiens, DU-4475, 168 h): 490 nM | IC50 ([3]; Homo sapiens, MOLP-8, 168 h): 570 nM

Cn1cc(/C=C/C(=O)N2CCC=CC2=O)cn1 [Compound 56, (E)-1-(3-(1-methyl-1H-pyrazol-4-yl)acryloyl)-5,6-dihydropyridin-2(1H)-one]
IC50 [1, 4]: 3600 nM | IC50 ([2]; Homo sapiens, DU-4475, 168 h): 1380 nM | IC50 ([3]; Homo sapiens, MOLP-8, 168 h): 600 nM

O=C1C=CCCN1C(=O)/C=C/C1CCN(C2COC2)CC1 [Compound 45, (E)-1-(3-(1-(oxetan-3-yl)piperidin-4-yl)acryloyl)-5,6-dihydropyridin-2(1H)-one]
IC50 [1, 4]: 3240 nM | IC50 ([2]; Homo sapiens, DU-4475, 168 h): 1350 nM | IC50 ([3]; Homo sapiens, MOLP-8, 168 h): 720 nM

Cn1cc(/C=C(\C(=O)N2CCC=CC2=O)c2ccccc2)cn1 [Compound 84, (Z)-1-(3-(1-methyl-1H-pyrazol-4-yl)-2-phenylacryloyl)-5,6-dihydropyridin-2(1H)-one]
IC50 [1, 4]: 3710 nM | IC50 ([2]; Homo sapiens, DU-4475, 168 h): 1630 nM | IC50 ([3]; Homo sapiens, MOLP-8, 168 h): 1550 nM

CC(C)(C)OC(=O)N1CCC(/C=C(\C(=O)N2CCC=CC2=O)c2ccccc2)CC1 [Compound 92, (Z)-tert-butyl 4-(3-oxo-3-(2-oxo-5,6-dihydropyridin-1(2H)-yl)-2-phenylprop-1-enyl)piperidine-1-carboxylate]
IC50 [1, 4]: 9720 nM | IC50 ([2]; Homo sapiens, DU-4475, 168 h): 4750 nM | IC50 ([3]; Homo sapiens, MOLP-8, 168 h): 4320 nM

COc1cc(/C=C/C(=O)N2CC(O)C=CC2=O)cc2c1OCCO2 (stereo not drawn) [Compound 25, 5-hydroxy-1-[(2E)-3-(8-methoxy-2,3-dihydro-1,4-benzodioxin-6-yl)prop-2-enoyl]-5,6-dihydropyridin-2(1H)-one]
IC50 [1, 4]: 4610 nM | IC50 ([2]; Homo sapiens, DU-4475, 168 h): 1770 nM | IC50 ([3]; Homo sapiens, MOLP-8, 168 h): 370 nM

O=C1C=CCCN1S(=O)(=O)/C=C/c1cccnc1 [Compound 11, (E)-1-((2-(pyridin-3-yl)vinyl)sulfonyl)-5,6-dihydropyridin-2(1H)-one]
IC50 [1, 4]: 1900 nM | IC50 ([2]; Homo sapiens, DU-4475, 168 h): 580 nM | IC50 ([3]; Homo sapiens, MOLP-8, 168 h): 500 nM

O=C1C=CCCN1C(=O)/C=C/c1cn[nH]c1 [Compound 89, (E)-1-(3-(1H-pyrazol-4-yl)acryloyl)-5,6-dihydropyridin-2(1H)-one]
IC50 [1, 4]: 2700 nM | IC50 ([2]; Homo sapiens, DU-4475, 168 h): 8410 nM | IC50 ([3]; Homo sapiens, MOLP-8, 168 h): 3580 nM

O=C1C=CCCN1C(=O)/C=C/C1CC1 [Compound 18, (E)-1-(3-cyclopropylacryloyl)-5,6-dihydropyridin-2(1H)-one]
IC50 [1, 4]: 14200 nM | IC50 ([2]; Homo sapiens, DU-4475, 168 h): 2050 nM | IC50 ([3]; Homo sapiens, MOLP-8, 168 h): 680 nM

C/C(=C\c1cnn(C)c1)C(=O)N1CCC=CC1=O [Compound 69, 1-[(2E)-2-methyl-3-(1-methyl-1H-pyrazol-4-yl)prop-2-enoyl]-5,6-dihydropyridin-2(1H)-one]
IC50 [1, 4]: 14000 nM | IC50 ([2]; Homo sapiens, DU-4475, 168 h): 4010 nM | IC50 ([3]; Homo sapiens, MOLP-8, 168 h): 1980 nM

C/C(=C\C1CCNCC1)C(=O)N1CCC=CC1=O [Compound 88, (E)-1-(2-methyl-3-(piperidin-4-yl)acryloyl)-5,6-dihydropyridin-2(1H)-one 2,2,2-trifluoroacetate]
IC50 [1, 4]: 7060 nM | IC50 ([2]; Homo sapiens, DU-4475, 168 h): 6560 nM | IC50 ([3]; Homo sapiens, MOLP-8, 168 h): 3780 nM

O=C1C=CCCN1C(=O)/C=C/C1CCCCC1 [Compound 2, (E)-1-(3-cyclohexylacryloyl)-5,6-dihydropyridin-2(1H)-one]
IC50 [1, 4]: 2600 nM | IC50 ([2]; Homo sapiens, DU-4475, 168 h): 950 nM | IC50 ([3]; Homo sapiens, MOLP-8, 168 h): 1050 nM

COc1cc(/C=C(\C)C(=O)N2CCC=CC2=O)cc2c1OCCO2 [Compound 55, 1-[(2E)-3-(8-methoxy-2,3-dihydro-1,4-benzodioxin-6-yl)-2-methylprop-2-enoyl]-5,6-dihydropyridin-2(1H)-one]
IC50 [1, 4]: 1960 nM | IC50 ([2]; Homo sapiens, DU-4475, 168 h): 830 nM | IC50 ([3]; Homo sapiens, MOLP-8, 168 h): 580 nM

CC1(C)C=CC(=O)N(C(=O)/C=C/c2ncccn2)C1 [Compound 33, (E)-5,5-dimethyl-1-(3-(pyrimidin-2-yl)acryloyl)-5,6-dihydropyridin-2(1H)-one]
IC50 [1, 4]: 4070 nM | IC50 ([2]; Homo sapiens, DU-4475, 168 h): 1300 nM | IC50 ([3]; Homo sapiens, MOLP-8, 168 h): 560 nM

O=C1C=CCCCN1C(=O)/C=C/c1ccc2ccccc2n1 [Compound 15, (E)-1-(3-(quinolin-2-yl)acryloyl)-1,5,6,7-tetrahydro-2H-azepin-2-one]
IC50 [1, 4]: 880 nM | IC50 ([2]; Homo sapiens, DU-4475, 168 h): 500 nM | IC50 ([3]; Homo sapiens, MOLP-8, 168 h): 500 nM

CC(C)(C)/C=C/C(=O)N1CCC=CC1=O [Compound 28, (E)-1-(4,4-dimethylpent-2-enoyl)-5,6-dihydropyridin-2(1H)-one]
IC50 [1, 4]: 3530 nM | IC50 ([2]; Homo sapiens, DU-4475, 168 h): 1380 nM | IC50 ([3]; Homo sapiens, MOLP-8, 168 h): 490 nM

O=C1C=CCCCN1C(=O)/C=C/c1cccnc1 [Compound 4, (E)-1-(3-(pyridin-3-yl)acryloyl)-1,5,6,7-tetrahydro-2H-azepin-2-one]
IC50 [1, 4]: 1900 nM | IC50 ([2]; Homo sapiens, DU-4475, 168 h): 590 nM | IC50 ([3]; Homo sapiens, MOLP-8, 168 h): 520 nM

O=C1C=CCCCN1S(=O)(=O)/C=C/c1ccccc1 [Compound 14, (E)-1-(styrylsulfonyl)-1,5,6,7-tetrahydro-2H-azepin-2-one]
IC50 [1, 4]: 7000 nM | IC50 ([2]; Homo sapiens, DU-4475, 168 h): 3040 nM | IC50 ([3]; Homo sapiens, MOLP-8, 168 h): 3510 nM

O=C1C=CCCCN1C(=O)/C=C/c1ccccn1 [Compound 8, (E)-1-(3-(pyridin-2-yl)acryloyl)-1,5,6,7-tetrahydro-2H-azepin-2-one]
IC50 [1, 4]: 1500 nM | IC50 ([2]; Homo sapiens, DU-4475, 168 h): 500 nM | IC50 ([3]; Homo sapiens, MOLP-8, 168 h): 410 nM

O=C1C=CCCCN1C(=O)/C=C/c1ncccn1 [Compound 13, (E)-1-(3-(pyrimidin-2-yl)acryloyl)-1,5,6,7-tetrahydro-2H-azepin-2-one]
IC50 [1, 4]: 1300 nM | IC50 ([2]; Homo sapiens, DU-4475, 168 h): 670 nM | IC50 ([3]; Homo sapiens, MOLP-8, 168 h): 510 nM

CC(C)(C)CN1CCC(/C=C/C(=O)N2CCC=CC2=O)CC1 [Compound 62, (E)-1-(3-(1-neopentylpiperidin-4-yl)acryloyl)-5,6-dihydropyridin-2(1H)-one]
IC50 [1, 4]: 1730 nM | IC50 ([2]; Homo sapiens, DU-4475, 168 h): 580 nM | IC50 ([3]; Homo sapiens, MOLP-8, 168 h): 310 nM

C/C(=C/C1CCNCC1)C(=O)N1CCC=CC1=O [Compound 87, (Z)-1-(2-methyl-3-(piperidin-4-yl)acryloyl)-5,6-dihydropyridin-2(1H)-one 2,2,2-trifluoroacetate]
IC50 [1, 4]: 10100 nM | IC50 ([2]; Homo sapiens, DU-4475, 168 h): 5530 nM | IC50 ([3]; Homo sapiens, MOLP-8, 168 h): 3660 nM

O=C1C=CCCCN1C(=O)/C=C/C1CCNCC1 [Compound 38, (E)-1-(3-(piperidin-4-yl)acryloyl)-6,7-dihydro-1H-azepin-2(5H)-one]
IC50 [1, 4]: 920 nM | IC50 ([2]; Homo sapiens, DU-4475, 168 h): 1030 nM | IC50 ([3]; Homo sapiens, MOLP-8, 168 h): 230 nM
